# Tested on: erythrocytes of female and male blood donor
# Experiment: Hemolysis study of solvents
# Assay type: cell-based
# Details: for Hemolysis [%]: female and male blood donor (n = 4)
# Procedure: To outline the suitability of PEG500DME as a solvent for parenteral use, a hemolysis study was performed: […]
# [1] = dilution 1:2 with 0.9% NaCl solution
# [2] = dilution 1:4 with 0.9% NaCl solution
# [3] = dilution 1:8 with 0.9% NaCl solution
# [4] = dilution 1:16 with 0.9% NaCl solution
# [5] = dilution 1:32 with 0.9% NaCl solution
# [6] = dilution 1:64 with 0.9% NaCl solution
# [7] = dilution 1:128 with 0.9% NaCl solution
smiles,measurement,setting,value
"CN1CCCC1=O [NMP, 1-methyl-2-pyrrolidinone]",Hemolysis [%] in donor one,dilution 0 (pure solvent),28%
same,Hemolysis [%] in donor one,[1],0%
same,Hemolysis [%] in donor one,[2],0%
same,Hemolysis [%] in donor one,[3],0%
same,Hemolysis [%] in donor one,[4],0%
same,Hemolysis [%] in donor one,[5],0%
same,Hemolysis [%] in donor one,[6],0%
same,Hemolysis [%] in donor one,[7],0%
same,Hemolysis [%] in donor two,dilution 0 (pure solvent),54%
same,Hemolysis [%] in donor two,[1],10%
same,Hemolysis [%] in donor two,[2],1%
same,Hemolysis [%] in donor two,[3],1%
same,Hemolysis [%] in donor two,[4],1%
same,Hemolysis [%] in donor two,[5],1%
same,Hemolysis [%] in donor two,[6],1%
same,Hemolysis [%] in donor two,[7],1%
same,Hemolysis [%],[1],7.8 ± 5.6%
same,Hemolysis [%],[2],0.5 ± 0.6%
same,Hemolysis [%],[3],0.3 ± 0.5%
same,Hemolysis [%],[4],0.3 ± 0.5%
same,Hemolysis [%],[5],0.3 ± 0.5%
same,Hemolysis [%],[6],0.3 ± 0.5%
same,Hemolysis [%],[7],0.3 ± 0.5%

# Source: US9155696B2, “Pharmaceutical compositions” (Novartis AG, priority 2008, dated 2015)
